In ChEMBL document CHEMBL1141331, “Citromycetins and bilains A-C: new aromatic polyketides and diketopiperazines from Australian marine-derived and terrestrial Penicillium spp” (2007):

Assay: Cytotoxicity against mouse NS1 cells
Assay type: functional

Row | SMILES | LD99 [µM]
1 | C[C@@H]1CC(=O)C2=C(O1)c1cc(O)c(O)cc1OC2 | 0.05
2 | CS[C@@H]1C(=O)N(C)[C@](Cc2ccc(OCC=C(C)C)cc2)(SC)C(=O)N1C (relative stereo) | 0.15
3 | Cc1cc(=O)c2c(o1)-c1cc(O)c(O)cc1OC2 [CITROMYCIN] | 0.1
